Laboratory results as given in PubChem BioAssay AID330 (DTP/NCI, 2004).
Values joined by “and” are separate entries in the source; they are usually repeats but may differ in a detail not shown here. Equal values may be shown once. Toxic doses and inconclusive results are not listed. The calls were made as follows: active = survival T/C of 150% or more; inactive = T/C below 125% in these data.

System: P388 leukemia ip, CD2F1 mice, survival T/C
Assay: NCI In Vivo Anticancer Drug Screen. Data for tumor model P388 Leukemia (intraperitoneal) in CD2F1 (CDF1) mice
Conditions: endpoint: median survival time, higher = longer survival
Method in brief: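 Mice carrying the transplanted tumor received test compound or vehicle. Survival was recorded in each group, and the value is the treated-group measurement divided by that of the vehicle-treated control group.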

[1] = dose: 50.0 mg/kg/injection, schedule: Q01DX005 (ip), vehicle: saline with Tween-80
[2] = dose: 50.0 mg/kg/injection, schedule: Q01DX009 (ip), vehicle: saline with Tween-80
[3] = dose: 100.0 mg/kg/injection, schedule: Q01DX005 (ip), vehicle: saline with Tween-80
[4] = dose: 200.0 mg/kg/injection, schedule: Q01DX005 (ip), vehicle: saline with Tween-80
[5] = dose: 50.0 mg/kg/injection, schedule: Q04DX002 (ip), vehicle: saline with Tween-80
[6] = dose: 100.0 mg/kg/injection, schedule: Q01DX009 (ip), vehicle: saline with Tween-80

Measured: T/C

Cc1no[n+]([O-])c1C(=O)NN
inactive: dose: 60.0 mg/kg/injection, schedule: Q01DX005 (ip), vehicle: Klucel (hydroxypropylcellulose) (HPC) 103 % of control | dose: 120.0 mg/kg/injection, schedule: Q01DX005 (ip), vehicle: Klucel (hydroxypropylcellulose) (HPC) 94 % of control | dose: 240.0 mg/kg/injection, schedule: Q01DX005 (ip), vehicle: Klucel (hydroxypropylcellulose) (HPC) 100 % of control

CC(=O)N=c1sccn1CC(=O)c1ccccc1
inactive: dose: 25.0 mg/kg/injection, schedule: Q04DX003 (ip), vehicle: Klucel (hydroxypropylcellulose) (HPC) 119 % of control | dose: 50.0 mg/kg/injection, schedule: Q04DX003 (ip), vehicle: Klucel (hydroxypropylcellulose) (HPC) 96 % of control | dose: 100.0 mg/kg/injection, schedule: Q01DX001 (ip), vehicle: Klucel (hydroxypropylcellulose) (HPC) 100 % of control | dose: 200.0 mg/kg/injection, schedule: Q01DX001 (ip), vehicle: Klucel (hydroxypropylcellulose) (HPC) 100 % of control | dose: 400.0 mg/kg/injection, schedule: Q01DX001 (ip), vehicle: Klucel (hydroxypropylcellulose) (HPC) 101 % of control

Nc1c2cc3c(cc2c[n+]2ccc4ccccc4c12)OCO3
inactive: dose: 6.25 mg/kg/injection, schedule: Q04DX003 (ip), vehicle: distilled water + Tween-80 111 % of control and 113 % of control and 115 % of control | dose: 12.5 mg/kg/injection, schedule: Q04DX003 (ip), vehicle: distilled water + Tween-80 113 % of control and 116 % of control and 120 % of control | dose: 25.0 mg/kg/injection, schedule: Q04DX003 (ip), vehicle: distilled water + Tween-80 111 % of control (2×) and 123 % of control

O=C1C=CC2OC(c3ccccc3)C(O)C2O1 (stereo not drawn)
inactive: dose: 3.12 mg/kg/injection, schedule: Q01DX005 (ip), vehicle: DMSO 98 % of control | dose: 6.25 mg/kg/injection, schedule: Q01DX005 (ip), vehicle: DMSO 107 % of control | dose: 6.25 mg/kg/injection, schedule: Q01DX005 (ip), vehicle: saline with Tween-80 110 % of control and 118 % of control (2×) | dose: 6.25 mg/kg/injection, schedule: Q01DX009 (ip), vehicle: distilled water + Tween-80 + alcohol 98 % of control | dose: 12.5 mg/kg/injection, schedule: Q01DX005 (ip), vehicle: DMSO 116 % of control | dose: 12.5 mg/kg/injection, schedule: Q01DX005 (ip), vehicle: saline with Tween-80 103 % of control (2×) and 117 % of control | dose: 12.5 mg/kg/injection, schedule: Q01DX009 (ip), vehicle: distilled water + Tween-80 + alcohol 109 % of control | dose: 25.0 mg/kg/injection, schedule: Q01DX005 (ip), vehicle: DMSO 122 % of control | dose: 25.0 mg/kg/injection, schedule: Q01DX005 (ip), vehicle: saline with Tween-80 109 % of control (2×) and 118 % of control | dose: 25.0 mg/kg/injection, schedule: Q01DX009 (ip), vehicle: distilled water + Tween-80 + alcohol 118 % of control | dose: 30.0 mg/kg/injection, schedule: Q01DX009 (ip), vehicle: DMSO 113 % of control | [1] 107 % of control

CCCc1cc(=O)[nH]c(Sc2ccc([N+](=O)[O-])cn2)n1
inactive: dose: 3.12 mg/kg/injection, schedule: Q01DX005 (ip), vehicle: Klucel (hydroxypropylcellulose) (HPC) 101 % of control | dose: 6.25 mg/kg/injection, schedule: Q01DX005 (ip), vehicle: Klucel (hydroxypropylcellulose) (HPC) 101 % of control | dose: 12.5 mg/kg/injection, schedule: Q01DX005 (ip), vehicle: Klucel (hydroxypropylcellulose) (HPC) 106 % of control

CCN(CC)CCCC(C)Nc1c2ccc(C)cc2nc2ccc(OC)cc12 (stereo not drawn)
inactive: dose: 12.5 mg/kg/injection, schedule: Q01DX009 (ip), vehicle: saline with Tween-80 103 % of control | [2] 112 % of control

CCc1nc(N)nc(N)c1-c1ccc2c(c1)nnn2C1CCCCC1
inactive: [1] 100 % of control | [3] 100 % of control | [4] 87 % of control

C=C1C(C2(C)C=CC(=O)OC3(C)COC(=O)CC32)C(OC=O)C(OC(=O)C(O)C(C)CC)C2(C)C(c3ccoc3)CC(OC(C)=O)C12O (stereo not drawn)
inactive: dose: 5.0 mg/kg/injection, schedule: Q01DX005 (ip), vehicle: Klucel (hydroxypropylcellulose) (HPC) 96 % of control | dose: 10.0 mg/kg/injection, schedule: Q01DX005 (ip), vehicle: Klucel (hydroxypropylcellulose) (HPC) 98 % of control and 96 % of control | dose: 20.0 mg/kg/injection, schedule: Q01DX005 (ip), vehicle: Klucel (hydroxypropylcellulose) (HPC) 91 % of control and 95 % of control | dose: 40.0 mg/kg/injection, schedule: Q01DX005 (ip), vehicle: Klucel (hydroxypropylcellulose) (HPC) 95 % of control and 96 % of control | dose: 80.0 mg/kg/injection, schedule: Q01DX005 (ip), vehicle: Klucel (hydroxypropylcellulose) (HPC) 102 % of control | dose: 160.0 mg/kg/injection, schedule: Q01DX005 (ip), vehicle: Klucel (hydroxypropylcellulose) (HPC) 87 % of control

O=C(NCc1ccccc1)C1C(=O)N(Cc2ccccc2)C(=O)/C1=N/O (stereo not drawn)
inactive: [1] 100 % of control | [3] 100 % of control | [4] 100 % of control

O=c1c2cc(O)c(O)cc2oc2cc(O)c(C3OC(CO)C(O)C(O)C3O)c(O)c12 (stereo not drawn)
inactive: dose: 100.0 mg/kg/injection, schedule: Q01DX001 (ip), vehicle: saline 101 % of control | dose: 400.0 mg/kg/injection, schedule: Q01DX001 (ip), vehicle: saline 101 % of control

O=c1c(-c2ccccc2)cc2c(-c3ccccc3)oc(-c3ccccc3)c2cc1-c1ccccc1
inactive: [5] 90 % of control | dose: 100.0 mg/kg/injection, schedule: Q04DX002 (ip), vehicle: saline with Tween-80 94 % of control | dose: 200.0 mg/kg/injection, schedule: Q04DX002 (ip), vehicle: saline with Tween-80 92 % of control

Oc1ccc(/C=N/N=C/c2ccc(O)c(O)c2)cc1O
inactive: [1] 121 % of control | [3] 106 % of control and 119 % of control | [4] 113 % of control | dose: 400.0 mg/kg/injection, schedule: Q01DX005 (ip), vehicle: saline with Tween-80 121 % of control

Clc1ccc2sc(-c3ccccc3)nc2c1
inactive: [2] 106 % of control | [6] 103 % of control | dose: 200.0 mg/kg/injection, schedule: Q01DX009 (ip), vehicle: saline with Tween-80 100 % of control | dose: 400.0 mg/kg/injection, schedule: Q01DX009 (ip), vehicle: saline with Tween-80 100 % of control

N=c1c2ccn(C3OC(CO)C(O)C3O)c2ncn1N (stereo not drawn)
inactive: dose: 6.25 mg/kg/injection, schedule: Q01DX009 (ip), vehicle: water 117 % of control | dose: 50.0 mg/kg/injection, schedule: Q01DX009 (ip), vehicle: water 121 % of control

C[C@H]1O[C@H](C)[C@H](O)C2=C1C(=O)c1ccccc1C2=O
inactive: dose: 12.5 mg/kg/injection, schedule: Q04DX002 (ip), vehicle: saline with Tween-80 100 % of control and 95 % of control | dose: 25.0 mg/kg/injection, schedule: Q04DX002 (ip), vehicle: saline with Tween-80 99 % of control and 100 % of control and 96 % of control | [5] 99 % of control and 110 % of control and 94 % of control

CCN(CC)CCNc1c(OC)cc(C)c2sc3ccccc3c(=O)c12
inactive: [2] 115 % of control | [6] 117 % of control

NC(Cc1ccc(O)c(Cl)c1)C(=O)O (stereo not drawn)
inactive: dose: 50.0 mg/kg/injection, schedule: Q01DX005 (ip), vehicle: saline 98 % of control | dose: 100.0 mg/kg/injection, schedule: Q01DX005 (ip), vehicle: saline 98 % of control | dose: 200.0 mg/kg/injection, schedule: Q01DX005 (ip), vehicle: saline 95 % of control

Nc1cc([N+](=O)[O-])ccc1-c1ccc(NC(=O)CCNC=O)cc1
inactive: dose: 12.5 mg/kg/injection, schedule: Q01DX009 (ip), vehicle: other 93 % of control | dose: 25.0 mg/kg/injection, schedule: Q01DX009 (ip), vehicle: other 97 % of control | dose: 50.0 mg/kg/injection, schedule: Q01DX009 (ip), vehicle: other 90 % of control | dose: 100.0 mg/kg/injection, schedule: Q01DX009 (ip), vehicle: other 93 % of control | dose: 200.0 mg/kg/injection, schedule: Q01DX009 (ip), vehicle: other 91 % of control
